Experimental data from US8575178B2, “Isothiazolo-pyrimidinedione derivatives as TRPA1 modulators” (Glenmark Pharmaceuticals S.A., priority 2009, dated 2013).

Legend:
[1] = molecular target: T1, rat TRPA1 (Rattus norvegicus, UniProt Q6RI86); assay: 45Calcium uptake assay, inhibition of AITC induced calcium uptake in rat TRPA1 expressing CHO cells; type: cell-based; conditions: AITC 10 μM; for inhibition at 1 µM: 1.0 μM compound, read-out: rat TRPA1 Percentage inhibition at 1.0 μM; for inhibition at 10 µM: 10.0 μM compound, read-out: rat TRPA1 Percentage inhibition at 10.0 μM
T1 construct: expressed in transfected cells; host or cells: CHO cells (Zeocin selection)
Description: (§1) The illustrative examples of the present invention are screened for TRPA1 activity according to a modified procedure described in (a) Tóth, A. et al. Life Sciences, 2003, 73, 487-498. (b) McNamara C, R. et al, Proc. Natl. Acad. Sci. U.S.A., 2007, 104, 13525-13530. The screening of the compounds can be carried out by other methods and procedures known to persons skilled in the art.
(§2) Screening for TRPA1 Antagonist Using the ^45Calcium Uptake Assay:
(§3) The inhibition of TRPA1 receptor activation was measured as inhibition of allyl isothiocyanate (AITC) induced cellular uptake of radioactive calcium.
(§4) Test compounds were dissolved in 100% DMSO to prepare 10 mM stock and then diluted using plain medium with 0.1% BSA and 1.8 mM CaCl2 to get the desired concentration. The final concentration of DMSO in the reaction was 0.5% (v/v). Human TRPA1 expressing CHO cells were grown in F-12 DMEM medium with 10% FBS, 1% penicillin-streptomycin solution, and 400 μg/ml of G-418. Rat TRPA1 expressing CHO cells were grown in F-12 DMEM medium with 10% FBS, 1% penicillin-streptomycin solution, and 400 μg/ml of Zeocin. Cells were seeded 24 h prior to the assay in 96 well plates so as to get ˜50,000 cells per well on the day of experiment. Cells were treated with the test compounds for 10 minutes followed by the addition of AITC at a final concentration of 30 μM (for human TRPA1) and/or 10 μM (for rat TRPA1) and 5 μCi/ml ^45Ca^+2 for 3 minutes. Cells were washed and lysed using a buffer containing 1% Triton X-100, 0.1% deoxycholate and 0.1% SDS. Radioactivity in the lysate was measured in a Packard TopCount after addition of liquid scintillant. (Toth et al, Life Sciences (2003) 73, 487-498; McNamara C R et al, Proceedings of the National Academy of Sciences, (2007) 104, 13525-13530).
(§5) Concentration response curves were plotted as a % of maximal response obtained in the absence of test antagonist. IC50 values can be calculated from concentration response curve by nonlinear regression analysis using GraphPad PRISM software.

[2] = molecular target: T2, human TRPA1 (Homo sapiens, UniProt O75762); assay: 45Calcium uptake assay, inhibition of AITC induced calcium uptake in human TRPA1 expressing CHO cells; type: cell-based; conditions: AITC 30 μM; for inhibition at 1 µM: 1.0 μM compound, read-out: human TRPA1 Percentage inhibition at 1.0 μM; for inhibition at 10 µM: 10.0 μM compound, read-out: human TRPA1 Percentage inhibition at 10.0 μM
T2 construct: expressed in transfected cells; host or cells: CHO cells (G-418 selection)
Description: as §1, §2, §3, §4, §5

T1 sequence (Q6RI86 whole entry): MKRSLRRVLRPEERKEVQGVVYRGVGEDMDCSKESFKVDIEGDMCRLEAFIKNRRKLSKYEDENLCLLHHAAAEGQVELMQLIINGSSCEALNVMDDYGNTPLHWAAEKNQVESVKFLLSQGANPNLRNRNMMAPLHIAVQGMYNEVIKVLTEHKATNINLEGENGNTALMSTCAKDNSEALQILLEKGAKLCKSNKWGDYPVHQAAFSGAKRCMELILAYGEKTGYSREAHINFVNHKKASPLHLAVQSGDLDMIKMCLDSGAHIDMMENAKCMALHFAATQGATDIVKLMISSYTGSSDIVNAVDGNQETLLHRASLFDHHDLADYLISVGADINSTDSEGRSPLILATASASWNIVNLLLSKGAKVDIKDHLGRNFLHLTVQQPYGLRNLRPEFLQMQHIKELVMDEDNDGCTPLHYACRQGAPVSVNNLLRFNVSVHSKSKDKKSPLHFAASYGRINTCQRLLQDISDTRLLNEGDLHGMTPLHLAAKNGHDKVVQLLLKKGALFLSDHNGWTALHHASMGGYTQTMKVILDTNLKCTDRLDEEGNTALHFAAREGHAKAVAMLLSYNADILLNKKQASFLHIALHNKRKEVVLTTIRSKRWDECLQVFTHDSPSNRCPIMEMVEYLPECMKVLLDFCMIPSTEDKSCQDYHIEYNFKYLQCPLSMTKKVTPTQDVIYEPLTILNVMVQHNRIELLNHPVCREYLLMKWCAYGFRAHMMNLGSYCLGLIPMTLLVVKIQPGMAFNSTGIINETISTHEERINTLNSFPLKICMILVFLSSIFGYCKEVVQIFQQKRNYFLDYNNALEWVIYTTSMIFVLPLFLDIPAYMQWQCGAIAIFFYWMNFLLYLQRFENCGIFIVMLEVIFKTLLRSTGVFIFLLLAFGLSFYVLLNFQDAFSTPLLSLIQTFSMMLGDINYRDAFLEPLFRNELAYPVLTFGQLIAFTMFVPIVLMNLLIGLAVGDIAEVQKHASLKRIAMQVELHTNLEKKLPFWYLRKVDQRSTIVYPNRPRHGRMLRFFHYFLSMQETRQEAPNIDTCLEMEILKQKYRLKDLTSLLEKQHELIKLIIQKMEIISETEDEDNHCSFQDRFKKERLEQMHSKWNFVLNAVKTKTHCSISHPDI
T2 sequence (O75762 whole entry): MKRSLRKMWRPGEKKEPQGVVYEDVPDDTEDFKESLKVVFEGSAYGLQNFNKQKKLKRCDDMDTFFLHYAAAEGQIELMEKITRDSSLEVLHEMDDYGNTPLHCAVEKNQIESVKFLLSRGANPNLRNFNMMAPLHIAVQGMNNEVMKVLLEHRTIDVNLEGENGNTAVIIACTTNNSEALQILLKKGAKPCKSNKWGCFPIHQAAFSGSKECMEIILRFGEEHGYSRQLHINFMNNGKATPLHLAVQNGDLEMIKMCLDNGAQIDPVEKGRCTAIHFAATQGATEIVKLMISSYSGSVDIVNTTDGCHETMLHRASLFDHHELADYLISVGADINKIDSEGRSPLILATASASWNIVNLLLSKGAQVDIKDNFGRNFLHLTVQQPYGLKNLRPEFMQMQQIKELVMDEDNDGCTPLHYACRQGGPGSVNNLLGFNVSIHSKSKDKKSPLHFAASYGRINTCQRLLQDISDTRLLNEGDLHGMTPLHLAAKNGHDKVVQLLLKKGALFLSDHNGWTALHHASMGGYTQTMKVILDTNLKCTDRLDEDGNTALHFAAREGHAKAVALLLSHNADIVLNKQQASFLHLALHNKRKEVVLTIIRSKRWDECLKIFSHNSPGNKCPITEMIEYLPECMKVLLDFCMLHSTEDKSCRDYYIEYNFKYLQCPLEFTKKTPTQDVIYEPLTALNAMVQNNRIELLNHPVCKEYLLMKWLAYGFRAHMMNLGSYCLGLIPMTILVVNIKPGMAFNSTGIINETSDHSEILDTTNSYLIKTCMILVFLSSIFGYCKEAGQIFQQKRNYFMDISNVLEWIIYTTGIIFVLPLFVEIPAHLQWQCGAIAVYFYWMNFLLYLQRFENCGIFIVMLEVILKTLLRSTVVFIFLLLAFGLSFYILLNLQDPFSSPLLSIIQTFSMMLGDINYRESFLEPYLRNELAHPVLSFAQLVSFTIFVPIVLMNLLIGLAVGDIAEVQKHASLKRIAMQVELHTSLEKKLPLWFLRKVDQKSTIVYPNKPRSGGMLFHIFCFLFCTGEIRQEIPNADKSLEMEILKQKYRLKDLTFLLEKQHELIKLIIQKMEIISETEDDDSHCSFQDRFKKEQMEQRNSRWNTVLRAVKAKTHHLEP

| SMILES | inhibition at 1 µM [1] | inhibition at 10 µM [1] | IC50 [1] | inhibition at 1 µM [2] | inhibition at 10 µM [2] | IC50 [2] |
| --- | --- | --- | --- | --- | --- | --- |
| Cn1c(=O)c2c(CC(=O)Nc3nc(-c4cccc(C(F)(F)F)c4F)cs3)nsc2n(C)c1=O [Example 23, 2-(5,7-Dimethyl-4,6-dioxo-4,5,6,7-tetrahydro[1,2]thiazolo[5,4-d]pyrimidin-3-yl)-N-{4-[2-fluoro-3-(trifluoromethyl)phenyl]-1,3-thiazol-2-yl}acetamide] | 100% | 100% | < 50 nM | 99.3% | 100% | < 50 nM |
| Cn1c(=O)c2c(CC(=O)Nc3nc(-c4ccc(F)c(OC(F)(F)F)c4)cs3)nsc2n(C)c1=O [Example 24, 2-(5,7-Dimethyl-4,6-dioxo-4,5,6,7-tetrahydro[1,2]thiazolo[5,4-d]pyrimidin-3-yl)-N-{4-[4-fluoro-3-(trifluoromethoxy)phenyl]-1,3-thiazol-2-yl}acetamide] | 100% | 99.8% | 50 to 100 nM | 99.6% | 100% | < 50 nM |
| Cn1c(=O)c2c(CC(=O)Nc3nc(-c4ccc(OC(F)(F)F)c(F)c4)cs3)nsc2n(C)c1=O [Example 25, 2-(5,7-Dimethyl-4,6-dioxo-4,5,6,7-tetrahydro[1,2]thiazolo[5,4-d]pyrimidin-3-yl)-N-{4-[3-fluoro-4-(trifluoromethoxy)phenyl]-1,3-thiazol-2-yl}acetamide] | 98.8% | 100% | 50 to 100 nM | 99.9% | 100% | < 50 nM |
| Cn1c(=O)c2c(CC(=O)Nc3nc(-c4ccc(Cl)c(Cl)c4)cs3)nsc2n(C)c1=O [Example 26, N-[4-(3,4-Dichlorophenyl)-1,3-thiazol-2-yl]-2-(5,7-dimethyl-4,6-dioxo-4,5,6,7-tetrahydro[1,2]thiazolo[5,4-d]pyrimidin-3-yl)acetamide] | 97.7% | 100% | > 100 nM | 99.9% | 99.5% | < 50 nM |
| Cn1c(=O)c2c(CC(=O)Nc3nc(-c4ccc(F)c(F)c4)cs3)nsc2n(C)c1=O [Example 27, N-[4-(3,4-Difluorophenyl)-1,3-thiazol-2-yl]-2-(5,7-dimethyl-4,6-dioxo-4,5,6,7-tetrahydro[1,2]thiazolo[5,4-d]pyrimidin-3-yl)acetamide] | 81.8% | 99.6% | > 100 nM | 97.8% | 99.8% | < 50 nM |
| Cn1c(=O)c2c(CC(=O)Nc3nc(-c4ccc(F)cc4F)cs3)nsc2n(C)c1=O [Example 28, N-[4-(2,4-Difluorophenyl)-1,3-thiazol-2-yl]-2-(5,7-dimethyl-4,6-dioxo-4,5,6,7-tetrahydro[1,2]thiazolo[5,4-d]pyrimidin-3-yl)acetamide] | 92.8% | 100% | – | 98% | 99.6% | < 50 nM |
| Cn1c(=O)c2c(CC(=O)Nc3nc(-c4ccc(Cl)c(C(F)(F)F)c4)cs3)nsc2n(C)c1=O [Example 29, 2-(5,7-Dimethyl-4,6-dioxo-4,5,6,7-tetrahydro[1,2]thiazolo[5,4-d]pyrimidin-3-yl)-N-{4-[4-chloro-3-(trifluoromethyl)phenyl]-1,3-thiazol-2-yl}acetamide] | 100% | 100% | < 50 nM | 98.1% | 99.6% | < 50 nM |
| Cn1c(=O)c2c(CC(=O)Nc3nc(-c4ccc(OC(F)(F)F)c(Cl)c4)cs3)nsc2n(C)c1=O [Example 30, 2-(5,7-Dimethyl-4,6-dioxo-4,5,6,7-tetrahydro[1,2]thiazolo[5,4-d]pyrimidin-3-yl)-N-{4-[3-chloro-4-(trifluoromethoxy)phenyl]-1,3-thiazol-2-yl}acetamide] | 100% | 99.3% | 50 to 100 nM | 95.6% | 99.7% | < 50 nM |
| Cn1c(=O)c2c(CC(=O)Nc3nc(-c4ccc(Cl)c(OC(F)(F)F)c4)cs3)nsc2n(C)c1=O [Example 31, 2-(5,7-Dimethyl-4,6-dioxo-4,5,6,7-tetrahydro[1,2]thiazolo[5,4-d]pyrimidin-3-yl)-N-{4-[4-chloro-3-(trifluoromethoxy)phenyl]-1,3-thiazol-2-yl}acetamide] | 99.6% | 96.2% | – | 99.2% | 99.2% | – |
| Cn1c(=O)c2c(CC(=O)Nc3nc(-c4cc(Cl)cc(C(F)(F)F)c4)cs3)nsc2n(C)c1=O [Example 32, 2-(5,7-Dimethyl-4,6-dioxo-4,5,6,7-tetrahydro[1,2]thiazolo[5,4-d]pyrimidin-3-yl)-N-{4-[3-chloro-5-(trifluoromethyl)phenyl]-1,3-thiazol-2-yl}acetamide] | 99.8% | 100% | – | 99.2% | 99.4% | – |
| Cn1c(=O)c2c(CC(=O)Nc3nc(-c4ccc(F)c(C(F)(F)F)c4F)cs3)nsc2n(C)c1=O [Example 37, N-{4-[2,4-Difluoro-3-(trifluoromethyl)phenyl]-1,3-thiazol-2-yl}-2-(5,7-dimethyl-4,6-dioxo-4,5,6,7-tetrahydro[1,2]thiazolo[5,4-d]pyrimidin-3-yl)acetamide] | – | – | < 50 nM | 98.3% | 99.3% | < 50 nM |
| Cn1c(=O)c2c(CC(=O)Nc3nc(-c4cc(F)c(C(F)(F)F)c(F)c4)cs3)nsc2n(C)c1=O [Example 38, N-{4-[3,5-difluoro-4-(trifluoromethyl)phenyl]-1,3-thiazol-2-yl}-2-(5,7-dimethyl-4,6-dioxo-4,5,6,7-tetrahydro[1,2]thiazolo[5,4-d]pyrimidin-3-yl)acetamide] | 100% | 100% | < 50 nM | 100% | 99.9% | < 50 nM |
| Cn1c(=O)c2c(CC(=O)Nc3nc(-c4ccc(C(F)(F)F)c(F)c4F)cs3)nsc2n(C)c1=O [Example 39, N-{4-[2,3-Difluoro-4-(trifluoromethyl)phenyl]-1,3-thiazol-2-yl}-2-(5,7-dimethyl-4,6-dioxo-4,5,6,7-tetrahydro[1,2]thiazolo[5,4-d]pyrimidin-3-yl)acetamide] | 96.5% | 95.8% | – | 99.8% | 99.9% | – |
